Reference: patent publication US20110009345A1 (priority 2009, published 2011)
No end group written: not given here.

Tested on: adjuvant-induced arthritis
Settings: male Sprague-Dawley rats, by gavage during 10 days

YGSRS [peptide, tyrosine-glycine-serine-arginine-serine]
effect on body weight: without inducing weight loss
